Results published in patent US11434227B2, “Broad spectrum antibacterial activity of novel bisbenzimidazoles targeting topoisomerase IA and the synergistic composition of bisbenzimidazole with efflux pump inhibitors against pathogenic bacteria” (Jawaharlal Nehru University (JNU), priority 2016, dated 2022).
Values after ≈ are worked out from the molar mass of the structure shown. Read-outs that look alike come from different tables or passages of the source.

Assays:
[1] = system: Shigella flexineri (MTCC1457); experiment: Susceptibility (MIC50/MIC90), broth microdilution; format: cell-based
[2] = system: Mycobacterium tuberculosis H37Ra (avirulent); experiment: Susceptibility of Mycobacterium tuberculosis strains (MIC90); format: cell-based
[3] = system: Mycobacterium tuberculosis H37Rv (virulent); experiment: as above; format: cell-based
S. aureus 1016 = experiment: Neutropenic thigh infection model; format: in vivo, Balb/c mice
Source text: Craig, was used in this study.

[4] = system: isogenic efflux deleted strains; experiment: Susceptibility of isogenic efflux deleted strains versus wild type; format: cell-based, Escherichia coli; details: in comparison to wild type strains
M. tuberculosis = experiment: Effect on virulent and avirulent strains of M. tuberculosis; format: cell-based, Mycobacterium tuberculosis
E. coli ATCC 25922 = experiment: Neutropenic thigh infection model
Description: The neutropenic mice thigh infection model, fully described by. Craig, was used in this study. Female Balb/c mice (6 mice per dosing group) weighing 20-25 g were rendered neutropenic with 2 intraperitoneal injections of cyclophosphamide (150 mg/kg of body weight 4 days prior to bacterial inoculation and 100 mg/kg 1 day before inoculation) 2 h prior to bacterial inoculation. […] Bacteria were injected into the right thigh of each mouse at time zero. […] Neutropenia was defined as an absolute neutrophil count of 500 polymorphonuclear leukocytes/cm^3 of blood. The bacterial suspension was diluted to a concentration of 10^6 CFU/mL with normal saline. Then, 0.1 mL of the bacterial suspension was injected into each posterior thigh muscle 2 h after the second dose of cyclophosphamide was administered. […] Twenty-four hours after drug treatment was begun, the mice were humanely sacrificed. Right thigh muscles from each mouse were aseptically collected, homogenized and serially diluted 1:10 in phosphate buffer saline, and processed for quantitative cultures.

Enterococcus sp. (2105) = experiment: Susceptibility (MIC50/MIC90), broth microdilution
Description: (§1) MICs were determined by the broth microdilution method according to CLSI methods (Clinical and Laboratory Standards Institute, 2005). Inoculants were incubated at 37° C. on cation adjusted Mueller Hinton (MH) Broth for 18 to 24 h. Compound were dissolved in media to 10 doubling dilutions from 128 to 0.125 μg/mL. All the bacterial strains were grown in 96 well plate with low evaporation lid (Falcon, Becton Dickinson) in presence of derivatives of benzimidazoles at 0.125, 0.25, 0.5, 1, 2, 4, 8, 16, 32, 64, 128, 256 μg/mL concentrations. […] Plates were read by Tecan Micro-plate Reader at 600 nm.

Enterococcus sp. (1121) = experiment: Susceptibility (MIC50/MIC90), broth microdilution
Description: as §1

Enterococcus sp. (1365) = experiment: Susceptibility (MIC50/MIC90), broth microdilution
Description: as §1

Enterococcus sp.(1150) = experiment: Susceptibility (MIC50/MIC90), broth microdilution
Description: as §1

Enterococcus sp. (1367) = experiment: Susceptibility (MIC50/MIC90), broth microdilution
Description: as §1

Enterococcus sp. (432) = experiment: Susceptibility (MIC50/MIC90), broth microdilution
Description: as §1

Staphylococcus sp. (976) = experiment: Susceptibility (MIC50/MIC90), broth microdilution
Description: as §1

Staphylococcus sp. (982) = experiment: Susceptibility (MIC50/MIC90), broth microdilution
Description: as §1

[5] = system: Staphylococcus sp. (1016); experiment: Susceptibility (MIC50/MIC90), broth microdilution
Description: as §1

Escherichia coli 385 = experiment: Susceptibility (MIC50/MIC90), broth microdilution
Description: as §1

Escherichia coli 392 = experiment: Susceptibility (MIC50/MIC90), broth microdilution
Description: as §1

[6] = system: Acinetobacter baumannii (MTCC1920); experiment: Susceptibility (MIC50/MIC90), broth microdilution
Description: as §1

[7] = system: Acinetobacter baumannii (AB387); experiment: Susceptibility (MIC50/MIC90), broth microdilution
Description: as §1

[8] = system: Acinetobacter baumannii (AB312); experiment: Susceptibility (MIC50/MIC90), broth microdilution
Description: as §1

[9] = system: Pseudomonas aeruginosa (Ps162); experiment: Susceptibility (MIC50/MIC90), broth microdilution
Description: as §1

[10] = system: Pseudomonas aeruginosa (MTCC1688); experiment: Susceptibility (MIC50/MIC90), broth microdilution
Description: as §1

[11] = system: Pseudomonas aeruginosa (MTCC 366); experiment: Susceptibility (MIC50/MIC90), broth microdilution; details: MTCC366
Description: as §1

[12] = system: Klebsiella planticola (MTCC 2272); experiment: Susceptibility (MIC50/MIC90), broth microdilution; details: MTCC2272
Description: as §1

[13] = system: Klebsiella planticola (K1164); experiment: Susceptibility (MIC50/MIC90), broth microdilution
Description: as §1

[14] = system: Klebsiella planticola (K235); experiment: Susceptibility (MIC50/MIC90), broth microdilution
Description: as §1

[15] = system: Klebsiella planticola (K589); experiment: Susceptibility (MIC50/MIC90), broth microdilution
Description: as §1

[16] = system: Salmonella typhimurium (MTCC 1251); experiment: Susceptibility (MIC50/MIC90), broth microdilution; details: Salmonella enterica
Description: as §1

[17] = system: Salmonella typhimurium (St412); experiment: Susceptibility (MIC50/MIC90), broth microdilution; details: Salmonella enterica
Description: as §1

E. coli K12 = experiment: Susceptibility of E. coli K12 and mutants (MIC90); details: Escherichia coli
Description: as §1

E. coli K12 mutant ΔacrA = experiment: Susceptibility of E. coli K12 and mutants (MIC90); details: Escherichia coli
Description: as §1

E. coli K12 mutant ΔemrA = experiment: Susceptibility of E. coli K12 and mutants (MIC90); details: Escherichia coli
Description: as §1

E. coli K12 mutant ΔtolC = experiment: Susceptibility of E. coli K12 and mutants (MIC90); details: Escherichia coli
Description: as §1

E. coli K12 mutant ΔompC = experiment: Susceptibility of E. coli K12 and mutants (MIC90); details: Escherichia coli
Description: as §1

E. coli K12 mutant ΔompF = experiment: Susceptibility of E. coli K12 and mutants (MIC90); details: Escherichia coli
Description: as §1

[18] = system: E. coli K12 mutant ΔTopIA; experiment: Susceptibility of E. coli K12 and mutants (MIC90); details: Escherichia coli
Description: as §1

[19] = system: E. coli K12 mutant ΔTopIB; experiment: Susceptibility of E. coli K12 and mutants (MIC90); details: Escherichia coli
Description: as §1

[20] = system: Escherichia coli (ATCC 25922); experiment: Susceptibility (MIC, PAE, MBC), broth microdilution
Description: as §1

[21] = Neutropenic thigh, ATCC 25922, single i.v. bolus, 24 h

SMILES: CCCCN1CCN(c2ccc3nc(-c4ccc5[nH]c(-c6ccc(OC)c(OC)c6)nc5c4)[nH]c3c2)CC1 [SP12a, 5-(4-butylpiperazin-1-yl)-2′-(3,4-dimethoxyphenyl)-1H,1′H-2,5′-bibenzo[d]imidazole]
- MIC50 [1]: 0.24 µg/mL (≈ 0.47 µM)
- MIC90 [1]: 0.8 µg/mL (≈ 1.57 µM)
- MIC90 [2]: 7.3 µg/mL (≈ 14.3 µM)
- MIC90 [3]: 14.6 µg/mL (≈ 28.6 µM)
- Dose at 1.7 log reduction (S. aureus 1016; Neutropenic thigh, S. aureus 1016, single i.v. bolus, 24 h): 4 mg/kg bw/day
- bacterial load reduction (S. aureus 1016; balb/c mice neutropenia thigh model, Gram positive S1016): significant bacterial load reduction
- sensitisation of efflux deleted strains [4]: more sensitised
- effect on M. tuberculosis (M. tuberculosis): effective against M. tuberculosis
- Dose at 0.8 log reduction (E. coli ATCC 25922; [21]): 2 mg/kg bw/day
- Dose at 3.4 log reduction (E. coli ATCC 25922; [21]): 4 mg/kg bw/day
- bacterial load reduction (E. coli ATCC 25922; balb/c mice neutropenia thigh model, gram negative ATCC25922): significant bacterial load reduction
- MIC50 (Enterococcus sp. (2105)): 4.32 µg/mL (≈ 8.46 µM)
- MIC90 (Enterococcus sp. (2105)): 12.2 µg/mL (≈ 23.9 µM)
- MIC50 (Enterococcus sp. (1121)): < 0.25 µg/mL
- MIC90 (Enterococcus sp. (1121)): 0.88 µg/mL (≈ 1.72 µM)
- MIC50 (Enterococcus sp. (1365)): < 0.25 µg/mL
- MIC90 (Enterococcus sp. (1365)): < 0.25 µg/mL
- MIC50 (Enterococcus sp.(1150)): < 0.25 µg/mL
- MIC90 (Enterococcus sp.(1150)): < 0.25 µg/mL
- MIC50 (Enterococcus sp. (1367)): < 0.25 µg/mL
- MIC90 (Enterococcus sp. (1367)): < 0.25 µg/mL
- MIC50 (Enterococcus sp. (432)): > 128 µg/mL
- MIC90 (Enterococcus sp. (432)): > 128 µg/mL
- MIC50 (Staphylococcus sp. (976)): < 0.25 µg/mL
- MIC90 (Staphylococcus sp. (976)): 0.4 µg/mL (≈ 0.783 µM)
- MIC50 (Staphylococcus sp. (982)): 0.5 µg/mL (≈ 0.979 µM)
- MIC90 (Staphylococcus sp. (982)): 1 µg/mL (≈ 1.96 µM)
- MIC90 [5]: 5.7 ± 0.046 µg/mL (≈ 11.2 µM)
- MIC50 ([5]; Staphylococcus): 1.2 µg/mL (≈ 2.35 µM)
- MIC90 ([5]; Staphylococcus): 5.7 µg/mL (≈ 11.2 µM)
- MIC50 (Escherichia coli 385): 3.9 µg/mL (≈ 7.64 µM)
- MIC90 (Escherichia coli 385): 6.5 µg/mL (≈ 12.7 µM)
- MIC50 (Escherichia coli 392): 1.5 µg/mL (≈ 2.94 µM)
- MIC90 (Escherichia coli 392): 13.7 µg/mL (≈ 26.8 µM)
- MIC50 [6]: 128 µg/mL (≈ 251 µM)
- MIC90 [6]: 128 µg/mL (≈ 251 µM)
- MIC50 [7]: 3.6 µg/mL (≈ 7.05 µM)
- MIC90 [7]: 10.8 µg/mL (≈ 21.1 µM)
- MIC50 [8]: 4.6 µg/mL (≈ 9.01 µM)
- MIC90 [8]: 12.9 µg/mL (≈ 25.3 µM)
- MIC50 [9]: 5.22 µg/mL (≈ 10.2 µM)
- MIC90 [9]: > 128 µg/mL
- MIC50 [10]: 128 µg/mL (≈ 251 µM)
- MIC90 [10]: 128 µg/mL (≈ 251 µM)
- MIC50 [11]: < 0.25 µg/mL
- MIC90 [11]: < 0.25 µg/mL
- MIC50 [12]: 128 µg/mL (≈ 251 µM)
- MIC90 [12]: 128 µg/mL (≈ 251 µM)
- MIC50 [13]: > 128 µg/mL
- MIC90 [13]: 128 µg/mL (≈ 251 µM)
- MIC50 [14]: 3.1 µg/mL (≈ 6.07 µM)
- MIC90 [14]: 25.9 µg/mL (≈ 50.7 µM)
- MIC50 [15]: 10.3 µg/mL (≈ 20.2 µM)
- MIC90 [15]: 29.4 µg/mL (≈ 57.6 µM)
- MIC50 [16]: < 0.25 µg/mL
- MIC90 [16]: 0.25 µg/mL (≈ 0.49 µM)
- MIC50 [17]: < 0.25 µg/mL
- MIC90 [17]: 0.25 µg/mL (≈ 0.49 µM)
- MIC90 (E. coli K12): 16 µg/mL (≈ 31.3 µM)
- MIC90 (E. coli K12 mutant ΔacrA): 3.4 µg/mL (≈ 6.66 µM)
- MIC90 (E. coli K12 mutant ΔemrA): 7.9 µg/mL (≈ 15.5 µM)
- MIC90 (E. coli K12 mutant ΔtolC): 0.7 µg/mL (≈ 1.37 µM)
- MIC90 (E. coli K12 mutant ΔompC): 6.7 µg/mL (≈ 13.1 µM)
- MIC90 (E. coli K12 mutant ΔompF): 6.5 µg/mL (≈ 12.7 µM)
- MIC90 [18]: 3.9 µg/mL (≈ 7.64 µM)
- MIC90 [19]: 12.8 µg/mL (≈ 25.1 µM)
- MIC90 ([20]; ATCC 25922, Table 6): 7.3 ± 0.024 µg/mL (≈ 14.3 µM)
- MIC50 ([20]; Escherichia coli, ATCC25922): 3 µg/mL (≈ 5.87 µM)
- MIC90 ([20]; Escherichia coli, ATCC25922): 7.3 µg/mL (≈ 14.3 µM)
